Read-outs that look alike come from different tables or passages of the source.
Experiments:
Assay in all cases: TGFα-shedding assay-based GPCR screening with chimeric Gα subunit proteins
Assay type in all cases: cell-based
348 GPCRs [1] = target: T1, 348 GPCRs (Homo sapiens, UniProt Q9NZH0); conditions: 10µM, Favipiravir 100μM
T1 construct: expressed in transfected cells; host or cells: HEK293A

348 GPCRs [2] = target: T2, 348 GPCRs (Homo sapiens, UniProt Q5NUL3)
T2 construct: expressed in transfected cells; host or cells: HEK293A
T2 sequence (Q5NUL3 1-361): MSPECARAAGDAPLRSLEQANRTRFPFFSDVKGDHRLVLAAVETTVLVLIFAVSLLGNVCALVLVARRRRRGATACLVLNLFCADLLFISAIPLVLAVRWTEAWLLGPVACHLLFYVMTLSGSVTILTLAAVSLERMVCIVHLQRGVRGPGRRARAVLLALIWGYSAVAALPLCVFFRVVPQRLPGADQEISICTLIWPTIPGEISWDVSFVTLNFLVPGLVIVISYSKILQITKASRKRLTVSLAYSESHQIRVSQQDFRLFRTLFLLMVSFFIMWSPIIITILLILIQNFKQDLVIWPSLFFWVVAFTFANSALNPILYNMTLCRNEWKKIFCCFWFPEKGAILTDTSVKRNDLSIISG

348 GPCRs [3] = target: T3, 348 GPCRs (Homo sapiens, UniProt P32302)
T3 construct: expressed in transfected cells; host or cells: HEK293A
T3 sequence (P32302 1-372): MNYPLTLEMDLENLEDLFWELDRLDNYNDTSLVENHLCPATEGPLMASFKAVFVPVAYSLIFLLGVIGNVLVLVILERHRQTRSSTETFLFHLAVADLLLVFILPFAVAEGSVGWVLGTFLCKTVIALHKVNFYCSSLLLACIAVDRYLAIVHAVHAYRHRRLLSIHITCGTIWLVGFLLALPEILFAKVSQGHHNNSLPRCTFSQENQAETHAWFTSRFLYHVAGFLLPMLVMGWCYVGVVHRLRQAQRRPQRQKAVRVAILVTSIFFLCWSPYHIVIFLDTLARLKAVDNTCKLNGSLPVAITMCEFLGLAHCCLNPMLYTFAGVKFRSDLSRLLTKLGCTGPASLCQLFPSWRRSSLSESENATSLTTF

348 GPCRs [4] = target: T4, 348 GPCRs (Homo sapiens, UniProt Q9P296); conditions: 10µM, Favipiravir 100μM
T4 construct: expressed in transfected cells; host or cells: HEK293A
T4 sequence (Q9P296 whole entry): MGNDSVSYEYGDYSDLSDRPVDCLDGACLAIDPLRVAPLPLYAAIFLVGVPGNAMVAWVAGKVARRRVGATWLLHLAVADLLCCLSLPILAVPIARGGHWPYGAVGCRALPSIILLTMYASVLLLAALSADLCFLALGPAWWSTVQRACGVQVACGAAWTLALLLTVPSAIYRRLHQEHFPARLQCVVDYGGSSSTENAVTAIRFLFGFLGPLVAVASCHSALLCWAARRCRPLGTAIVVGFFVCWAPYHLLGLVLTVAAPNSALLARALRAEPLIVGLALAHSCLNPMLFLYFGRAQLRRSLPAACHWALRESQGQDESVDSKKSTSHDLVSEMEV

348 GPCRs [5] = target: 348 GPCRs (Homo sapiens, UniProt P47872); conditions: SCTR (secretin receptor); 10µM, Favipiravir 100μM
348 GPCRs (Homo sapiens, UniProt P47872), sequence (P47872 23-440): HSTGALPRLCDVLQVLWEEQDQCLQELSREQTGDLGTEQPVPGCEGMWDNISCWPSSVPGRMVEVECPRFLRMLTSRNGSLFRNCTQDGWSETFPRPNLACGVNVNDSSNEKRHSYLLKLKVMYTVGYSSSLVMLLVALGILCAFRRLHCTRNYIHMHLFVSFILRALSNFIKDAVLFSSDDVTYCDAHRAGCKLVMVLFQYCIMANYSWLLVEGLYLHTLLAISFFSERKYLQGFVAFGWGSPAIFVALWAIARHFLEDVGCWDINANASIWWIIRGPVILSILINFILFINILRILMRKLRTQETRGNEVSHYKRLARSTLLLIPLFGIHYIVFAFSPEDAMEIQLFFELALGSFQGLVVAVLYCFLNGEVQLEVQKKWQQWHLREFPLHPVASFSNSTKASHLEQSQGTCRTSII

348 GPCRs [6] = target: T5, 348 GPCRs (Homo sapiens, UniProt Q9HB89); conditions: 10µM, Favipiravir 100μM
T5 construct: expressed in transfected cells; host or cells: HEK293A
T5 sequence (Q9HB89 1-426): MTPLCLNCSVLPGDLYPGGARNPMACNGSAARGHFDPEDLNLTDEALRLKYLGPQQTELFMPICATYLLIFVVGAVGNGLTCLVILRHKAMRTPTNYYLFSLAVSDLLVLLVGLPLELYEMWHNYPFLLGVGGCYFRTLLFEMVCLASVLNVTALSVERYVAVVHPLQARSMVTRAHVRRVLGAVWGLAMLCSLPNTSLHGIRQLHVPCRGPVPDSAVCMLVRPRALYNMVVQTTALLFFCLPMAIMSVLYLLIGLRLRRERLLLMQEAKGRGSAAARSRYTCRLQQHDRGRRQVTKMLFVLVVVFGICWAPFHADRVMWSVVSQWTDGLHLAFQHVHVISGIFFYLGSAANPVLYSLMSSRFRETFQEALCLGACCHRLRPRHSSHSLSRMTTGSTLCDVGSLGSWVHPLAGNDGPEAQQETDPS

348 GPCRs [7] = target: 348 GPCRs (Homo sapiens, UniProt P31391); conditions: 10µM, Favipiravir 100μM
348 GPCRs (Homo sapiens, UniProt P31391), sequence (P31391 whole entry): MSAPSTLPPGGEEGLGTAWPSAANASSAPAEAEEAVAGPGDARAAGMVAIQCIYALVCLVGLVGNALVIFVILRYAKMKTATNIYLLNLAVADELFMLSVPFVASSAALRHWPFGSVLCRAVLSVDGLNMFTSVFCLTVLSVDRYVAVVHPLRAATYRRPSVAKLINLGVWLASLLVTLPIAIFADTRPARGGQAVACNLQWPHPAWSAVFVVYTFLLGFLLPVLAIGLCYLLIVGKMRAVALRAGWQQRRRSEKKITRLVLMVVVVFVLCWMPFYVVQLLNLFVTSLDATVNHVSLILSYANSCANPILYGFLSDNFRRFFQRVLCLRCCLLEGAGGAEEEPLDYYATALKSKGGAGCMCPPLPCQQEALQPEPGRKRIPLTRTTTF

348 GPCRs [8] = target: T6, 348 GPCRs (Homo sapiens, UniProt Q8TDT2); conditions: 10µM, Favipiravir 100μM
T6 construct: expressed in transfected cells; host or cells: HEK293A
T6 sequence (Q8TDT2 whole entry): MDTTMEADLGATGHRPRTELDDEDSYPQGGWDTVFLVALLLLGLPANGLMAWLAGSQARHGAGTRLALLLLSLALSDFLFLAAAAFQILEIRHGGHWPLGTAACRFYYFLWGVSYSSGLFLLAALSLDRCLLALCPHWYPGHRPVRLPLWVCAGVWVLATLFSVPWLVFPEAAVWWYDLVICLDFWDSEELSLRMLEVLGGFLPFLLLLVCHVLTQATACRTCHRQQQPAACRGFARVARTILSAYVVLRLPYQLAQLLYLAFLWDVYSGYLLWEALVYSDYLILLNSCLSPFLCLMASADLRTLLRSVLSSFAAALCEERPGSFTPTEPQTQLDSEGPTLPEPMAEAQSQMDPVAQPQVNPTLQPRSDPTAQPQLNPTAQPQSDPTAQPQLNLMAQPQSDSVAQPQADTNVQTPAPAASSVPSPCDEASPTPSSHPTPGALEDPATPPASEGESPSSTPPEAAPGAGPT

348 GPCRs [9] = target: T7, 348 GPCRs (Homo sapiens, UniProt P21462); conditions: 10µM, Favipiravir 100μM
T7 sequence (P21462 1-350): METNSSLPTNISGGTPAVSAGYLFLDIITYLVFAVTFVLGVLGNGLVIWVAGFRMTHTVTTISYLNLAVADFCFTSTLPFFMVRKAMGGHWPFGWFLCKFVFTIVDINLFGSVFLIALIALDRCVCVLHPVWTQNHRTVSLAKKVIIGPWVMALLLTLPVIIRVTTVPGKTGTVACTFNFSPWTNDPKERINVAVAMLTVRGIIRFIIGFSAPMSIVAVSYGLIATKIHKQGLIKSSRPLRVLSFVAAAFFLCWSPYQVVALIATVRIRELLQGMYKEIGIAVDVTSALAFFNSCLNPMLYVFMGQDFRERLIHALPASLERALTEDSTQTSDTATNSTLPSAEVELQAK

348 GPCRs [10] = target: T8, 348 GPCRs (Homo sapiens, UniProt Q9Y5N1); conditions: 10µM, Favipiravir 100μM
T8 construct: expressed in transfected cells; host or cells: HEK293A
T8 sequence (Q9Y5N1 whole entry): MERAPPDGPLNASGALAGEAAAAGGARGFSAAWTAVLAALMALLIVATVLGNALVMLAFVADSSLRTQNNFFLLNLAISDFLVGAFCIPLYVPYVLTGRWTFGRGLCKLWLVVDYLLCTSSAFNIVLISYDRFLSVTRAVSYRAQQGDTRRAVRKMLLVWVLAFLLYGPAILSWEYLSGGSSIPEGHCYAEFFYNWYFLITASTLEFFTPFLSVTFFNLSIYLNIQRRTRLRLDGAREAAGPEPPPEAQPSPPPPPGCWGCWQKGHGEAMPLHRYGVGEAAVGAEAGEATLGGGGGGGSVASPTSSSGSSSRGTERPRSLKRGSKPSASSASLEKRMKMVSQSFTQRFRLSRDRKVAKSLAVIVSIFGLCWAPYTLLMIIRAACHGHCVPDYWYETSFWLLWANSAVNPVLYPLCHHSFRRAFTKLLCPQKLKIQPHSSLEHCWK

348 GPCRs [11] = target: T9, 348 GPCRs (Homo sapiens, UniProt P43657); conditions: 10µM, Favipiravir 100μM
T9 construct: expressed in transfected cells; host or cells: HEK293A
T9 sequence (P43657 1-344): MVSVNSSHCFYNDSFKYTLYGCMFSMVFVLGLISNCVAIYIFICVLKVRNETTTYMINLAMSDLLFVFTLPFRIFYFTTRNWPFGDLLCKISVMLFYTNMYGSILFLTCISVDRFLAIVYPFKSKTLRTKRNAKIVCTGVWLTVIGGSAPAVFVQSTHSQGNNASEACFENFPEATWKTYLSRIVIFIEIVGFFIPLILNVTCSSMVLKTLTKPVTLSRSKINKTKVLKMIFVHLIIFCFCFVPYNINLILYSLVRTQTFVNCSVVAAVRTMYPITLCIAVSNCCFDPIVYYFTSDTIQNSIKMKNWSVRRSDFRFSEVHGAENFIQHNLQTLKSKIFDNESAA

[12] = GPRC5B (G protein-coupled receptor class C group 5 member B), read-out: % GPCR activation compared to TPA
[13] = FFA4 (free fatty acid receptor 4), Favipiravir 100μM, read-out: % GPCR activation compared to TPA
[14] = GPCR GPR120 (Free Fatty Acid Receptor 4 (FFAR4)), read-out: % GPCR activation compared to TPA
[15] = GPCR CXCR5 (C-X-C motif chemokine receptor 5), read-out: % GPCR activation compared to TPA
[16] = GPR77 (complement component 5a receptor 2 (C5AR2)), read-out: % GPCR activation compared to TPA
[17] = NMUR1 (neuromedin U receptor 1), read-out: % GPCR activation compared to TPA
[18] = SSTR4 (somatostatin receptor 4), read-out: % GPCR activation compared to TPA
[19] = GPR152 (G Protein-Coupled Receptor 152), read-out: % GPCR activation compared to TPA
[20] = FPR1 (formyl peptide receptor 1), read-out: % GPCR activation compared to TPA
[21] = H3 (histamine receptor H3), read-out: % GPCR activation compared to TPA
[22] = LPAR6 (lysophosphatidic acid receptor 6), read-out: % GPCR activation compared to TPA
[23] = read-out: % GPCR activation compared to TPA, GPRC5B (G protein-coupled receptor class C group 5 member B)
[24] = read-out: % GPCR activation compared to TPA, FFA4 (free fatty acid receptor 4), Favipiravir 100μM
[25] = read-out: % GPCR activation compared to TPA, GPCR GPR120 (Free Fatty Acid Receptor 4 (FFAR4))
[26] = read-out: % GPCR activation compared to TPA, GPCR CXCR5 (C-X-C motif chemokine receptor 5)
[27] = read-out: % GPCR activation compared to TPA, GPR77 (complement component 5a receptor 2 (C5AR2))
[28] = read-out: % GPCR activation compared to TPA, NMUR1 (neuromedin U receptor 1)
[29] = read-out: % GPCR activation compared to TPA, SSTR4 (somatostatin receptor 4)
[30] = read-out: % GPCR activation compared to TPA, GPR152 (G Protein-Coupled Receptor 152)
[31] = read-out: % GPCR activation compared to TPA, FPR1 (formyl peptide receptor 1)
[32] = read-out: % GPCR activation compared to TPA, H3 (histamine receptor H3)
[33] = read-out: % GPCR activation compared to TPA, LPAR6 (lysophosphatidic acid receptor 6)

T1 sequence (Q9NZH0 29-403): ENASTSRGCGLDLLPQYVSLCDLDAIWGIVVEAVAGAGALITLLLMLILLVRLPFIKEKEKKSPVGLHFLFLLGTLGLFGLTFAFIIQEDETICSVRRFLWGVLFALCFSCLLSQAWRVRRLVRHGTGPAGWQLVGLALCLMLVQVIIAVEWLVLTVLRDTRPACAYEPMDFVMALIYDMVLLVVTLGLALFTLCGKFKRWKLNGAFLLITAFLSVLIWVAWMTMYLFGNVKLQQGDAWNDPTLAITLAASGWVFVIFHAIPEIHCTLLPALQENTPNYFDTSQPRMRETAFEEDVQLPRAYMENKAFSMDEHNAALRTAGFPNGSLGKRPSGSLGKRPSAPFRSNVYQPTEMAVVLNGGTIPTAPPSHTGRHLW

## N#C[C@@]1(c2ccc3c(N)ncnn23)O[C@H](CO)[C@@H](O)[C@H]1O [GS441524]
348 GPCRs [1]; [12]
  activation at 100 µM: 4.38%
348 GPCRs [2]; [13]
  activation at 10 µM: -7.33%
348 GPCRs [2]; [14]
  activation at 10 µM: 0.817%
348 GPCRs [3]; [15]
  activation at 10 µM: -2.05%
348 GPCRs [4]; [16]
  activation at 100 µM: 2.65%
348 GPCRs [5]
  % GPCR activation compared to TPA: 0.8944%
348 GPCRs [6]; [17]
  activation at 10 µM: -0.746%
348 GPCRs [7]; [18]
  activation at 10 µM: -0.36%
348 GPCRs [8]; [19]
  activation at 10 µM: -0.232%
348 GPCRs [9]; [20]
  activation at 100 µM: -4.1%
348 GPCRs [10]; [21]
  activation at 100 µM: 0.59%
348 GPCRs [11]; [22]
  activation at 10 µM: -2.57%

## CCC(CC)COC(=O)[C@H](C)N[P@](=O)(OC[C@H]1O[C@@](C#N)(c2ccc3c(N)ncnn23)[C@H](O)[C@@H]1O)Oc1ccccc1 [remdesivir]
348 GPCRs [1]; [23]
  activation at 100 µM: 6.88%
348 GPCRs [2]; [24]
  activation at 10 µM: -7.9%
348 GPCRs [2]; [25]
  activation at 10 µM: 1.09%
348 GPCRs [3]; [26]
  activation at 10 µM: -0.166%
348 GPCRs [4]; [27]
  activation at 100 µM: 4.77%
348 GPCRs [5]
  % GPCR activation compared to TPA: -0.9507%
348 GPCRs [6]; [28]
  activation at 10 µM: 0.248%
348 GPCRs [7]; [29]
  activation at 10 µM: 0.732%
348 GPCRs [8]; [30]
  activation at 10 µM: -0.751%
348 GPCRs [9]; [31]
  activation at 100 µM: -4.31%
348 GPCRs [10]; [32]
  activation at 100 µM: 0.0878%
348 GPCRs [11]; [33]
  activation at 10 µM: -2.67%

## CC(C)OC(=O)[C@H](C)N[P@](=O)(OC[C@H]1O[C@@H](n2ccc(=O)[nH]c2=O)[C@](C)(F)[C@@H]1O)Oc1ccccc1 [sofosbuvir]
348 GPCRs [1]; [23]
  activation at 100 µM: -12.5%
348 GPCRs [2]; [24]
  activation at 10 µM: -2.55%
348 GPCRs [2]; [25]
  activation at 10 µM: -1.1%
348 GPCRs [3]; [26]
  activation at 10 µM: -0.968%
348 GPCRs [4]; [27]
  activation at 100 µM: -3.7%
348 GPCRs [5]
  % GPCR activation compared to TPA: 0.153%
348 GPCRs [6]; [28]
  activation at 10 µM: -2.52%
348 GPCRs [7]; [29]
  activation at 10 µM: 0.279%
348 GPCRs [8]; [30]
  activation at 10 µM: 1.86%
348 GPCRs [9]; [31]
  activation at 100 µM: -0.986%
348 GPCRs [10]; [32]
  activation at 100 µM: -2.02%
348 GPCRs [11]; [33]
  activation at 10 µM: 0.0867%

## NC(=O)c1nc(F)cnc1O [favipiravir, 6-fluoro-3-hydroxy-2-pyrazinecarboxamide]
348 GPCRs [1]; [12]
  activation at 100 µM: 7.41%
348 GPCRs [2]; [13]
  activation at 10 µM: -8.27%
348 GPCRs [2]; GPCR GPR120 (Free Fatty Acid Receptor 4 (FFAR4)), 100μM, read-out: % GPCR activation compared to TPA
  activation at 100 µM: -1.72%
348 GPCRs [3]; GPCR CXCR5 (C-X-C motif chemokine receptor 5), 100μM, read-out: % GPCR activation compared to TPA
  activation at 100 µM: -2.18%
348 GPCRs [4]; [16]
  activation at 100 µM: 6.15%
348 GPCRs [5]
  % GPCR activation compared to TPA: -0.5125%
348 GPCRs [6]; [17]
  activation at 10 µM: 0.18%
348 GPCRs [7]; [18]
  activation at 10 µM: -0.164%
348 GPCRs [8]; [19]
  activation at 10 µM: -0.401%
348 GPCRs [9]; [20]
  activation at 100 µM: -5.47%
348 GPCRs [10]; [21]
  activation at 100 µM: 0.315%
348 GPCRs [11]; [22]
  activation at 10 µM: -2.1%

## CC(C)C(=O)OC[C@H]1O[C@@H](n2ccc(NO)nc2=O)[C@H](O)[C@@H]1O [molnupiravir]
348 GPCRs [1]; [12]
  activation at 100 µM: -3.43%
348 GPCRs [2]; [13]
  activation at 10 µM: -1.75%
348 GPCRs [2]; [14]
  activation at 10 µM: -1.23%
348 GPCRs [3]; [15]
  activation at 10 µM: -2%
348 GPCRs [4]; [16]
  activation at 100 µM: -1.07%
348 GPCRs [5]
  % GPCR activation compared to TPA: -0.08366%
348 GPCRs [6]; [17]
  activation at 10 µM: -0.0262%
348 GPCRs [7]; [18]
  activation at 10 µM: -1.09%
348 GPCRs [8]; [19]
  activation at 10 µM: -1.29%
348 GPCRs [9]; [20]
  activation at 100 µM: -0.204%
348 GPCRs [10]; [21]
  activation at 100 µM: -0.295%
348 GPCRs [11]; [22]
  activation at 10 µM: -2.83%

Source: paper PMC10175918 (Communications Biology, 2023)
